Experimental data reported in patent publication US8697095B1, “Inhibition of replication of oncogenic herpesviruses” (priority 2004, dated 2014).
Values joined by “and” are separate entries in the source; they are usually repeats but may differ in a detail not shown here. Equal values may be shown once. “Also recorded” adds a separate entry of the source.

Experiments:
KSHV [1] = system: KSHV
Procedure: BCBL-1 cells were incubated with or without THC and in the presence of these compounds.

EBV = assay: Gardella gel antiviral assay, TPA-induced EBV replication in P3HR1 cells; format: cell-based, Epstein-Barr virus (EBV); settings: P3HR1 cells with TPA
MHV 68 = assay: Cytopathic effect and virus yield reduction, MHV 68 in NIH3T12 cells; format: cell-based, murine gamma herpesvirus 68 (MHV-68)
HVS = assay: Cytopathic effect and virus yield reduction, HVS in owl monkey kidney cells; format: cell-based, herpesvirus saimiri (HVS)
NIH3T12 cells [2] = assay: Cytotoxicity (monolayer growth and morphology) in NIH3T12 cells; format: cell-based, Murine; settings: 0.6-10 μg/ml, 2 days
Source text: (§1) Because the observed effects might be due to a non-specific toxic effect of THC, the inventors tested whether THC alters cell division or morphology in NIH3T12 and owl monkey kidney (OMK) cells. […].

[3] = system: Owl monkey kidney (OMK) cells; assay: Cytotoxicity in owl monkey kidney (OMK) cells; format: cell-based; settings: analogous experiment
Source text: as §1

BCBL-1 cells = assay: Cell division inhibition (cell counts) in BCBL-1 cells; format: cell-based; settings: BCBL1, 48 h, BCBL-1, two days, read-out: 50% cell division inhibitory concentration
Procedure: (§2) The effect of higher THC concentrations on cell division was also determined. Exponentially growing BCBL-1 or NIH12 cells were cultured for two days in the presence of various concentrations of THC or DMSO and cell counts were determined. The 50% cell division inhibitory concentration of THC for BCBL-1 cells was around 33 μM. NIH3T12 cells were less sensitive and the 50% inhibitory concentration was around 99 μM (not shown).

NIH3T12 cells [4] = assay: Cell division inhibition (cell counts) in NIH3T12 cells; format: cell-based, Murine; settings: Mus musculus, 48 h, NIH3T12, two days, read-out: 50% cell division inhibitory concentration
Procedure: as §2

HSV-1 [5] = assay: HSV-1 plaque formation and virus yield in NIH3T12 cells; format: cell-based
HSV-1 [6] = assay: HSV-1 replication in OMK cells; format: cell-based
Procedure: Control cultures were treated with […]. IC50 was determined by measuring virus titers in THC treated and control samples after one cycle of freeze-thawing of the cultures. Additional controls were uninfected cells grown in the presence of THC or DMSO. THC or DMSO were present throughout the experiment.
The inventors next examined whether or not the THC inhibitory effect can be observed against other herpesviruses and tested whether drug treatment suppresses the replication of the alpha herpesvirus, HSV-1. […] . […] HSV-1 replication in OMK was also unaffected by THC in an analogous experiment (not shown).

[7] = system: CMV immediate early promoter; assay: Dual luciferase promoter assay, control CMV promoter in NIH3T12 cells; format: cell-based; settings: 5 μg/ml, 48 hours
Source text: (§3) FIG. 3 is a table showing the relative luciferase activity of extracts from control and THC treated cells. […] cells co-transfected with MHV 68 ORF 50 plus CMV control (top rows). BCBL-1 cells were co-transfected with the KSHV ORF 50 plus CMV control (bottom rows). Data represents averages from three independent co-transfection experiments.
(§4) A DNA fragment corresponding to the promoter region upstream of the mapped mRNAs was cloned into the basic firefly luciferase vector (Promega, Inc, Madison Wis.) to evaluate the effect of THC on the KSHV ORF 50 promoter. To assay the effect of THC on the MHV 68 ORF 50 gene, a DNA fragment containing the 0.4 kb full length ORF 50 promoter (nucleotides 66242-66652) cloned upstream of the firefly luciferase was utilized. About 5 μg KSHV ORF 50 firefly plasmid DNA was transfected into BCBL-1 cells. About 5 μg MHV 68 ORF 50 firefly plasmid DNA was transfected Into NIH312 cells. Control renilla luciferase expression vector (under the control of the CMV immediate early promoter) was included and co-transfected along with the ORF 50 reporter constructs. […] Luciferase activities were determined using a dual luminometer.
(§5) To evaluate the effect of THC on the MHV 68 and KSHV ORF 50 promoters, luciferase reporter assays were performed. […] Luciferase activities were determined using a dual luminometer. […]

KSHV ORF 50 promoter = assay: Dual luciferase promoter assay, KSHV ORF 50 promoter in BCBL-1 cells; format: cell-based; settings: 5 μg/ml, 48 hours
Source text: as §3, §4, §5

[8] = system: CMV immediate early promoter; assay: Dual luciferase promoter assay, control CMV promoter in BCBL-1 cells; format: cell-based; settings: 5 μg/ml
Source text: as §3, §4, §5

KSHV [9] = assay: Gardella gel antiviral assay, KSHV DNA replication in BCBL-1 cells
KSHV, MHV 68 = settings: FIG. 4 comparison; cited from earlier work
[10] = cited from earlier work

With SR144528 the “Effect on spontaneous KSHV reactivation” value (KSHV [1]; BCBL-1, without THC) was “no effect”, the “Reversal of inhibition of linear DNA synthesis by THC” value (KSHV [1]; both antagonists, 1.25 μg/ml THC) was “reversed” and the “Reversal of THC inhibition of KSHV DNA synthesis” value (KSHV [1]; single receptor antagonist) was “not reversed”.

In the case of `CCCCCc1cc(O)c2c(c1)OC(C)(C)[C@@H]1CCC(C)=C[C@@H]21` [THC, Δ-9 Tetrahydrocannabinol], the “Effect on EBV linear DNA synthesis” value (EBV; autoradiogram) is reported as “inhibited EBV linear DNA synthesis”, the IC50 (EBV; human gammaherpesvirus 4, P3HR-1, read-out: 50% inhibitory concentration (IC50), EBV linear DNA synthesis) is reported as ~0.9 µg/mL and ~3.1 µM and the “Cytopathic effect of MHV 68, appearance of infected cells” value (MHV 68; 0.6 μg/ml, 48 hours, NIH3T12) is reported as “intermediate between uninfected cells and the full cytopathic effect”. For the same compound, the “Cytopathic effect of MHV 68, appearance of infected cells” value (MHV 68; 1.25 μg/ml or higher, 48 hours, NIH3T12) was “indistinguishable from uninfected control cells”, the “Inhibition of virus yield” value (MHV 68; 10 μg/ml, 48 hours, NIH3T12) was “over 300 fold” and the “Potency and selectivity against MHV 68 compared with acyclovir, ganciclovir and foscarnet” value (MHV 68; FIG. 4 comparison) was “even more potent and selective”. The IC50 (MHV 68; Gammaherpesvirinae sp., in Mus musculus, 48 h, read-out: 50% inhibitory concentration (IC50), MHV 68 virus yield) was ~0.6 µg/mL and ~1.9 µM, the “Effect on MHV 68 virus yield / replication” value (MHV 68; NIH3T12 cells) was “inhibits MHV 68 virus yield; also recorded: highly significantly inhibited; also recorded: strongly inhibited” and the “HVS virus yield reduction / replication” value (HVS) was “strongly inhibited”. For the same compound, the “Cell growth and morphology” value (NIH3T12 cells [2]) was “no altered morphology”, the Toxicity [3] was “no toxicity” and the IC50 (BCBL-1 cells) was roughly 33 µM. For the same compound, the IC50 (NIH3T12 cells [4]) was roughly 99 µM, the HSV-1 plaque development (HSV-1 [5]; 0.6-10 μg/ml, 3 days, NIH3T12) was “indistinguishable from those in control cultures” and the “Effect on HSV-1 virus yield” value (HSV-1 [5]; NIH3T12, multiplicity of 2, 24 hours) was “no significant inhibitory effect”. For the same compound, the HSV-1 replication (HSV-1 [6]) was “unaffected”, the “Reduction of control CMV promoter activity” value [7] was 35% and the “Inhibition of KSHV ORF 50-driven luciferase activity” value (KSHV ORF 50 promoter) was roughly 4 fold. The “Effect on co-transfected CMV promoter” value [8] was “slightly stimulated”, the “Potency and selectivity against KSHV compared with known antiviral drugs” value (KSHV [9]; FIG. 4 comparison) was “potent and selective antiviral agent” and the IC50 (KSHV [9]; Human gammaherpesvirus 8, BCBL1, 72 h, read-out: 50% inhibitory concentration (IC50), KSHV linear DNA) was 1 µg/mL and ~3.3 µM.

For `Nc1ccn(C[C@@H](CO)OCP(=O)(O)O)c(=O)n1` [Cidofovir], the “Relative potency in in vitro antiviral experiments” value (KSHV, MHV 68) is listed as “most potent” and the “Side effects in humans” value [10] is listed as “toxic to the kidney”.
